Laboratory results taken from ChEMBL document CHEMBL4477263, “Nature-inspired design of tetraindoles: Optimization of the core structure and evaluation of structure-activity relationship” (Bioorg Med Chem Lett, 2016).
Blank lines part the entries; values can stand above or below the compound they belong to. Active and inactive are the calls of the source. The calls are words filed in the database; no cut-off is given here.

Assays:
MDA-MB-231 [1] = test: Antiproliferative activity against human MDA-MB-231 cells after 48 hrs by MTT assay; type: functional, cell-based; conditions: MDA-MB-231, 48 h
MDA-MB-231 [2] = test: Antiproliferative activity against human MDA-MB-231 cells at 20 uM after 48 hrs by MTT assay; type: functional, cell-based
[3] = Toxicity in NOD/SCID mouse xenografted with human MIAPaCa2 cells assessed as body weight loss at 25 mg/kg, ip administered every 3.5 days per week for 5 weeks; type: organism-based; conditions: in vivo
MIA PaCa-2 [4] = test: Induction of apoptosis in human MIAPaCa2 cells assessed as necrotic cells at 0.6 uM after 12 hrs by Annexin V-FITC/propidium iodide staining based flow cytometry (reference value: 0.04%); type: functional
MIA PaCa-2 [5] = test: Cell cycle arrest in human MIAPaCa2 cells assessed as accumulation in G2/M phase at 0.6 uM after 24 hrs by propidium iodide staining based flow cytometry relative to control; type: functional
MIA PaCa-2 [6] = test: Induction of apoptosis in human MIAPaCa2 cells assessed as down regulation of Bcl-2 protein expression at 0.2 to 0.8 uM after 12 to 48 hrs by western immunoblot analysis; type: functional, cell-based
SK-HEP1 = test: Antiproliferative activity against human SKHEP1 cells after 48 hrs by MTT assay; type: functional, cell-based; conditions: SK-HEP1, 48 h
MIA PaCa-2 [7] = test: Induction of apoptosis in human MIAPaCa2 cells assessed as necrotic cells at 0.6 uM after 48 hrs by Annexin V-FITC/propidium iodide staining based flow cytometry (reference value: 0.06%); type: functional
MIA PaCa-2 [8] = test: Induction of apoptosis in human MIAPaCa2 cells assessed as early apoptotic cells at 0.6 uM after 24 hrs by Annexin V-FITC/propidium iodide staining based flow cytometry (reference value: 1.49%); type: functional
MIA PaCa-2 [9] = test: Cell cycle arrest in human MIAPaCa2 cells assessed as accumulation in S phase at 0.6 uM after 48 hrs by propidium iodide staining based flow cytometry (reference value: 19.7%); type: functional
NCI-H441 = test: Antiproliferative activity against human H441 cells after 48 hrs by MTT assay; type: functional, cell-based; conditions: NCI-H441, 48 h
MIA PaCa-2 [10] = test: Induction of apoptosis in human MIAPaCa2 cells assessed as live cells at 0.6 uM after 48 hrs by Annexin V-FITC/propidium iodide staining based flow cytometry (reference value: 98.4%); type: functional
U-87 MG = test: Antiproliferative activity against human U87 cells after 48 hrs by MTT assay; type: functional, cell-based, U-87MG ATCC
MIA PaCa-2 [11] = test: Cell cycle arrest in human MIAPaCa2 cells assessed as accumulation in S phase at 0.6 uM after 24 hrs by propidium iodide staining based flow cytometry (reference value: 38%); type: functional
MIA PaCa-2 [12] = test: Induction of apoptosis in human MIAPaCa2 cells assessed as early apoptotic cells at 0.6 uM after 48 hrs by Annexin V-FITC/propidium iodide staining based flow cytometry (reference value: 1.28%); type: functional
MIA PaCa-2 [13] = test: Induction of apoptosis in human MIAPaCa2 cells assessed as necrotic cells at 0.6 uM after 36 hrs by Annexin V-FITC/propidium iodide staining based flow cytometry (reference value: 0.06%); type: functional
MIA PaCa-2 [14] = test: Induction of apoptosis in human MIAPaCa2 cells assessed as necrotic cells at 0.6 uM after 24 hrs by Annexin V-FITC/propidium iodide staining based flow cytometry (reference value: 0.06%); type: functional
MIA PaCa-2 [15] = test: Antiproliferative activity against human MIAPaCa2 cells after 48 hrs by MTT assay; type: functional, cell-based; conditions: MIA PaCa-2, 48 h
MIA PaCa-2 [16] = test: Induction of apoptosis in human MIAPaCa2 cells assessed as late apoptotic cells at 0.6 uM after 36 hrs by Annexin V-FITC/propidium iodide staining based flow cytometry (reference value: 0.24%); type: functional
MIA PaCa-2 [17] = test: Induction of apoptosis in human MIAPaCa2 cells assessed as early apoptotic cells at 0.6 uM after 36 hrs by Annexin V-FITC/propidium iodide staining based flow cytometry (reference value: 1.7%); type: functional
MIA PaCa-2 [18] = test: Induction of apoptosis in human MIAPaCa2 cells assessed as down regulation of Bak protein expression at 0.2 to 0.8 uM after 12 to 48 hrs by western immunoblot analysis; type: functional, cell-based
MIA PaCa-2 [19] = test: Induction of apoptosis in human MIAPaCa2 cells assessed as live cells at 0.6 uM after 12 hrs by Annexin V-FITC/propidium iodide staining based flow cytometry (reference value: 98.9%); type: functional
MIA PaCa-2 [20] = test: Induction of apoptosis in human MIAPaCa2 cells assessed as upregulation of cleaved PARP protein expression at 0.2 to 0.8 uM after 12 to 48 hrs by western immunoblot analysis; type: functional, cell-based
Mahlavu = test: Antiproliferative activity against human Mahlavu cells after 48 hrs by MTT assay; type: functional, cell-based
MIA PaCa-2 [21] = test: Antitumor activity against human MIAPaCa2 cells xenografted in NOD/SCID mouse assessed as tumor growth inhibition at 25 mg/kg, ip administered every 3.5 days per week for 5 weeks measured on day 38 post treatment relative to control; type: functional; conditions: MIA PaCa-2, ip, read-out: TGI
MIA PaCa-2 [22] = test: Induction of apoptosis in human MIAPaCa2 cells assessed as late apoptotic cells at 0.6 uM after 48 hrs by Annexin V-FITC/propidium iodide staining based flow cytometry (reference value: 0.21%); type: functional
NCI-H460 = test: Antiproliferative activity against human H460 cells after 48 hrs by MTT assay; type: functional, cell-based; conditions: NCI-H460, 48 h
MIA PaCa-2 [23] = test: Cell cycle arrest in human MIAPaCa2 cells assessed as accumulation in S phase at 0.6 uM after 36 hrs by propidium iodide staining based flow cytometry (reference value: 38%); type: functional
MIA PaCa-2 [24] = test: Induction of apoptosis in human MIAPaCa2 cells assessed as live cells at 0.6 uM after 24 hrs by Annexin V-FITC/propidium iodide staining based flow cytometry (reference value: 98.3%); type: functional
A549 = test: Antiproliferative activity against human A549 cells after 48 hrs by MTT assay; type: functional, cell-based; conditions: A549, 48 h
MIA PaCa-2 [25] = test: Induction of apoptosis in human MIAPaCa2 cells assessed as late apoptotic cells at 0.6 uM after 12 hrs by Annexin V-FITC/propidium iodide staining based flow cytometry (reference value: 0.07%); type: functional
MIA PaCa-2 [26] = test: Induction of apoptosis in human MIAPaCa2 cells assessed as early apoptotic cells at 0.6 uM after 12 hrs by Annexin V-FITC/propidium iodide staining based flow cytometry (reference value: 1%); type: functional
MIA PaCa-2 [27] = test: Cell cycle arrest in human MIAPaCa2 cells assessed as accumulation in G2/M phase at 0.6 uM after 48 hrs by propidium iodide staining based flow cytometry relative to control; type: functional
HCT-116 = test: Antiproliferative activity against human HCT116 cells after 48 hrs by MTT assay; type: functional, cell-based; conditions: HCT-116, 48 h
[28] = Antiproliferative activity against human CL1-5 cells after 48 hrs by MTT assay; type: functional, cell-based; conditions: CL1-5, 48 h
MIA PaCa-2 [29] = test: Induction of apoptosis in human MIAPaCa2 cells assessed as live cells at 0.6 uM after 36 hrs by Annexin V-FITC/propidium iodide staining based flow cytometry (reference value: 98%); type: functional
MIA PaCa-2 [30] = test: Induction of apoptosis in human MIAPaCa2 cells assessed as late apoptotic cells at 0.6 uM after 24 hrs by Annexin V-FITC/propidium iodide staining based flow cytometry (reference value: 0.16%); type: functional
MIA PaCa-2 [31] = test: Cell cycle arrest in human MIAPaCa2 cells assessed as accumulation in G2/M phase at 0.6 uM after 36 hrs by propidium iodide staining based flow cytometry relative to control; type: functional

SMILES: Oc1ccc2[nH]cc(C(c3ccc(-c4ccc(C(c5c[nH]c6ccc(O)cc56)c5c[nH]c6ccc(O)cc56)cc4)cc3)c3c[nH]c4ccc(O)cc34)c2c1
IC50 (MDA-MB-231 [1]): 10000 nM

SMILES: Oc1ccc2[nH]cc(C(c3c[nH]c4ccc(O)cc34)c3ccc(C(c4c[nH]c5ccc(O)cc45)c4c[nH]c5ccc(O)cc45)c4ccccc34)c2c1
IC50 (MDA-MB-231 [1]): 20000 nM

SMILES: Oc1ccc2[nH]cc(C(c3ccc(-c4cc(C(c5c[nH]c6ccc(O)cc56)c5c[nH]c6ccc(O)cc56)c(-c5ccc(C(c6c[nH]c7ccc(O)cc67)c6c[nH]c7ccc(O)cc67)cc5)cc4C(c4c[nH]c5ccc(O)cc45)c4c[nH]c5ccc(O)cc45)cc3)c3c[nH]c4ccc(O)cc34)c2c1
Activity (MDA-MB-231 [2]): inactive

SMILES: Oc1ccc2[nH]cc(C(c3c(Cl)c(Cl)c(C(c4c[nH]c5ccc(O)cc45)c4c[nH]c5ccc(O)cc45)c(Cl)c3Cl)c3c[nH]c4ccc(O)cc34)c2c1
Activity [3]: Non-Toxic
Activity (MIA PaCa-2 [4]): 0.09%
Activity (MIA PaCa-2 [5]): 12%
Activity (MIA PaCa-2 [6]): Active
IC50 (SK-HEP1): 470 nM
Activity (MIA PaCa-2 [7]): 0.23%
Activity (MIA PaCa-2 [8]): 2.1%
Activity (MIA PaCa-2 [9]): 46.4%
IC50 (NCI-H441): 600 nM
Activity (MIA PaCa-2 [10]): 93.3%
IC50 (U-87 MG): > 5000 nM
Activity (MIA PaCa-2 [11]): 55.8%
Activity (MIA PaCa-2 [12]): 5.28%
Activity (MIA PaCa-2 [13]): 0.2%
Activity (MIA PaCa-2 [14]): 0.03%
IC50 (MIA PaCa-2 [15]): 190 nM
Activity (MIA PaCa-2 [16]): 0.96%
Activity (MIA PaCa-2 [17]): 3.21%
Activity (MIA PaCa-2 [18]): Active
Activity (MIA PaCa-2 [19]): 98.6%
Activity (MIA PaCa-2 [20]): Active
IC50 (Mahlavu): 3500 nM
IC50 (MDA-MB-231 [1]): 560 nM
inhibition in vivo at 25 mg/kg (MIA PaCa-2 [21]): 35%
Activity (MIA PaCa-2 [22]): 1.18%
IC50 (NCI-H460): 830 nM
Activity (MIA PaCa-2 [23]): 51.4%
Activity (MIA PaCa-2 [24]): 97.6%
IC50 (A549): 2440 nM
Activity (MIA PaCa-2 [25]): 0.58%
Activity (MIA PaCa-2 [26]): 0.71%
Activity (MIA PaCa-2 [27]): 20%
IC50 (HCT-116): 1320 nM
IC50 [28]: 630 nM
Activity (MIA PaCa-2 [29]): 95.6%
Activity (MIA PaCa-2 [30]): 0.3%
Activity (MIA PaCa-2 [31]): 16%

SMILES: Cc1c(C)c(C(c2c[nH]c3ccc(O)cc23)c2c[nH]c3ccc(O)cc23)c(C)c(C)c1C(c1c[nH]c2ccc(O)cc12)c1c[nH]c2ccc(O)cc12
IC50 (MDA-MB-231 [1]): 1020 nM

SMILES: Oc1ccc2[nH]cc(C(c3cc(Br)c(C(c4c[nH]c5ccc(O)cc45)c4c[nH]c5ccc(O)cc45)cc3Br)c3c[nH]c4ccc(O)cc34)c2c1
IC50 (MDA-MB-231 [1]): 2450 nM

Continued, values first:

IC50 (MDA-MB-231 [1]): 710 nM
SMILES: Oc1ccc2[nH]cc(C(c3c[nH]c4ccc(O)cc34)c3c4ccccc4c(C(c4c[nH]c5ccc(O)cc45)c4c[nH]c5ccc(O)cc45)c4ccccc34)c2c1

IC50 (MDA-MB-231 [1]): > 20000 nM
SMILES: Oc1ccc2[nH]cc(C(/C=C/c3ccc(C(CC(c4c[nH]c5ccc(O)cc45)c4c[nH]c5ccc(O)cc45)c4c[nH]c5ccc(O)cc45)cc3)c3c[nH]c4ccc(O)cc34)c2c1 (stereo not given)

IC50 (MDA-MB-231 [1]): > 20000 nM
SMILES: Oc1ccc2[nH]cc(C(c3ccc4ccc5ccc(C(c6c[nH]c7ccc(O)cc67)c6c[nH]c7ccc(O)cc67)nc5c4n3)c3c[nH]c4ccc(O)cc34)c2c1
